What all share (type): functional
Assay [1] concerns Staphylococcus aureus. Put plainly: microbe, parasite or virus in culture. Conditions: ATCC 6538p, 24 h.
Description: Antibacterial activity against Staphylococcus aureus ATCC 6538p assessed as growth inhibition after 24 hr by microdilution method
For assay [2], the system named is Helicobacter pylori. Put plainly: Antibacterial activity against Helicobacter pylori strain 2 assessed as diameter of growth inhibition zone at 8 ug/disk after 3-5 days by filter paper disk diffusion method. Conditions: read-out: DIZ.
For assay [3], the system named is Staphylococcus epidermidis. Put plainly: microbe, parasite or virus in culture. Conditions: ATCC 12228, 24 h.
Description: Antibacterial activity against Staphylococcus epidermidis ATCC 12228 assessed as growth inhibition after 24 hr by microdilution method
Assay [4] deals with Helicobacter pylori. Put plainly: Antibacterial activity against Helicobacter pylori strain 3 assessed as diameter of growth inhibition zone at 16 ug/disk after 3-5 days by filter paper disk diffusion method. Conditions: read-out: DIZ.
Assay [5] relates to Klebsiella pneumoniae. Put plainly: microbe, parasite or virus in culture. The settings on record: ATCC 10031, 24 h.
Description: Antibacterial activity against Klebsiella pneumoniae ATCC 10031 assessed as growth inhibition after 24 hr by microdilution method
Assay [6] relates to Helicobacter pylori. Put plainly: Antibacterial activity against Helicobacter pylori strain 1 assessed as diameter of growth inhibition zone at 32 ug/disk after 3-5 days by filter paper disk diffusion method. Conditions: read-out: DIZ.
Assay [7] has as its system Helicobacter pylori. Put plainly: Antibacterial activity against Helicobacter pylori strain 1 assessed as diameter of growth inhibition zone at 64 ug/disk after 3-5 days by filter paper disk diffusion method. The settings on record: read-out: DIZ.
In assay [8] the test system is Helicobacter pylori. Put plainly: Antibacterial activity against Helicobacter pylori strain 2 assessed as diameter of growth inhibition zone at 16 ug/disk after 3-5 days by filter paper disk diffusion method. Conditions: read-out: DIZ.
Assay [9] deals with Helicobacter pylori. Put plainly: Antibacterial activity against Helicobacter pylori strain 2 assessed as diameter of growth inhibition zone at 64 ug/disk after 3-5 days by filter paper disk diffusion method. Conditions: read-out: DIZ.
Assay [10] concerns Helicobacter pylori. Put plainly: Antibacterial activity against Helicobacter pylori strain 3 assessed as diameter of growth inhibition zone at 8 ug/disk after 3-5 days by filter paper disk diffusion method. The settings on record: read-out: DIZ.
Assay [11] relates to Helicobacter pylori. Put plainly: Antibacterial activity against Helicobacter pylori strain 1 assessed as diameter of growth inhibition zone at 16 ug/disk after 3-5 days by filter paper disk diffusion method. The settings on record: read-out: DIZ.
Assay [12] has as its system Helicobacter pylori. Put plainly: Antibacterial activity against Helicobacter pylori strain 2 assessed as diameter of growth inhibition zone at 32 ug/disk after 3-5 days by filter paper disk diffusion method. The settings on record: read-out: DIZ.
Assay [13] relates to Pseudomonas aeruginosa. Put plainly: microbe, parasite or virus in culture. Conditions: ATCC 9027, 24 h.
Description: Antibacterial activity against Pseudomonas aeruginosa ATCC 9027 assessed as growth inhibition after 24 hr by microdilution method
Assay [14] deals with Helicobacter pylori. Put plainly: Antibacterial activity against Helicobacter pylori strain 1 assessed as diameter of growth inhibition zone at 8 ug/disk after 3-5 days by filter paper disk diffusion method. The settings on record: read-out: DIZ.
For assay [15], the system named is Escherichia coli. Put plainly: microbe, parasite or virus in culture. Conditions: ATCC 8739, 24 h.
Description: Antibacterial activity against Escherichia coli ATCC 8739 assessed as growth inhibition after 24 hr by microdilution method
For assay [16], the system named is Helicobacter pylori. Put plainly: Antibacterial activity against Helicobacter pylori strain 3 assessed as diameter of growth inhibition zone at 32 ug/disk after 3-5 days by filter paper disk diffusion method. The settings on record: read-out: DIZ.
In assay [17] the test system is Bacillus subtilis. Put plainly: microbe, parasite or virus in culture. The settings on record: ATCC 6633, 24 h.
Description: Antibacterial activity against Bacillus subtilis ATCC 6633 assessed as growth inhibition after 24 hr by microdilution method
Assay [18] relates to Helicobacter pylori. Put plainly: Antibacterial activity against Helicobacter pylori strain 3 assessed as diameter of growth inhibition zone at 64 ug/disk after 3-5 days by filter paper disk diffusion method. Conditions: read-out: DIZ.

Converted amounts (≈) assume the structure as drawn. Where only a bound is given, the exact number is not on record here.

Consider `Cn1c(/C=C2\S/C(=N/c3nc(-c4ccccc4)cs3)NC2=O)ccc1[N+](=O)[O-]`, for which the MIC is more than 100 µg/mL in assay [1]; 50 µg/mL (≈ 122 µM) in assay [3]; more than 100 µg/mL in assay [5]; more than 100 µg/mL in [13]; more than 100 µg/mL in assay [15]; 50 µg/mL (≈ 122 µM) in assay [17]. For the same compound, the zone of inhibition at 8 µg/disc in assay [2], in assay [10] and in [14] was 6 mm each time. Further, the zone of inhibition at 16 µg/disc in assay [4], in [8] and in [11] was 6 mm each time. In addition, the zone of inhibition at 32 µg/disc in [6], in [12] and in assay [16] was 6 mm each time. The zone of inhibition at 64 µg/disc in assay [7], in assay [9] and in assay [18] was 6 mm each time.
With `COc1ccc(-c2csc(/N=C3\NC(=O)/C(=C/c4ccc([N+](=O)[O-])n4C)S3)n2)cc1`, the MIC is more than 100 µg/mL in assay [1]; 25 µg/mL (≈ 56.6 µM) in assay [3]; 100 µg/mL (≈ 227 µM) in [5]; more than 100 µg/mL in assay [13]; more than 100 µg/mL in [15]; 50 µg/mL (≈ 113 µM) in [17]. In addition, the zone of inhibition at 8 µg/disc in assay [2], in assay [10] and in [14] was 6 mm throughout. The zone of inhibition at 16 µg/disc in [4], in assay [8] and in assay [11] was 6 mm each time. Further, the zone of inhibition at 32 µg/disc in [6], in assay [12] and in [16] was 6 mm each time. For the same compound, the zone of inhibition at 64 µg/disc in assay [7], in [9] and in [18] was 6 mm each time.
Take `COc1ccc(-c2csc(/N=C3\NC(=O)/C(=C/c4ccc([N+](=O)[O-])s4)S3)n2)cc1`: the MIC in assay [1] was more than 100 µg/mL; in assay [3], more than 100 µg/mL; in assay [5] it was more than 100 µg/mL; in assay [13], more than 100 µg/mL; in [15], 100 µg/mL (≈ 225 µM); in assay [17], more than 100 µg/mL. The zone of inhibition at 8 µg/disc in assay [2] came to 30 mm; in assay [10], 22 mm; in assay [14], 22 mm. In addition, the zone of inhibition at 16 µg/disc in [4] is 25 mm; in assay [8], 32 mm; in assay [11], 25 mm. For the same compound, the zone of inhibition at 32 µg/disc in [6] is 27 mm; in [12], 35 mm; in assay [16] it was 30 mm. For the same compound, the zone of inhibition at 64 µg/disc in assay [7] was 30 mm; in assay [9] it was 39 mm; in assay [18], 35 mm.
With `O=C1N/C(=N\c2nc3ccccc3s2)S/C1=C\c1ccc([N+](=O)[O-])s1`, the MIC in [1] was 0.39 µg/mL (≈ 1 µM); in assay [3], 0.19 µg/mL (≈ 0.489 µM); in assay [5], more than 100 µg/mL; in assay [13], more than 100 µg/mL; in [15], more than 100 µg/mL; in assay [17], 0.78 µg/mL (≈ 2.01 µM).
With `Cc1ncc([N+](=O)[O-])n1CCO` [METRONIDAZOLE], the zone of inhibition at 16 µg/disc in assay [4], in assay [8] and in assay [11] was 14 mm throughout.
As to `O=C1N/C(=N\c2nc(-c3ccccc3)cs2)S/C1=C\c1ccc([N+](=O)[O-])s1`, the MIC in assay [1], in assay [3], in assay [5], in [13], in assay [15] and in [17] was more than 100 µg/mL throughout.
For `O=C(O)c1cn(C2CC2)c2cc(N3CCNCC3)c(F)cc2c1=O` [CIPROFLOXACIN], the MIC in [1] came out at 0.19 µg/mL (≈ 0.573 µM); in assay [3], 0.097 µg/mL (≈ 0.293 µM); in assay [5] it was 0.006 µg/mL (≈ 0.0181 µM); in assay [13], 0.39 µg/mL (≈ 1.18 µM); in assay [17], 0.19 µg/mL (≈ 0.573 µM).

Source of the values: ChEMBL document CHEMBL3045421, “5-Nitro-heteroarylidene analogs of 2-thiazolylimino-4-thiazolidinones as a novel series of antibacterial agents” (2013).
